Assay results taken from ChEMBL document CHEMBL5143523, “Construction and activity evaluation of novel benzodioxane derivatives as dual-target antifungal inhibitors” (Eur J Med Chem, 2022).
Values after ≈ are worked out from the molar mass of the structure shown.

Assays:
Type in all cases: functional
Aspergillus fumigatus = experiment: Antifungal activity against Aspergillus fumigatus KM8001 assessed as fungal growth inhibition measured after 72 hrs by CLSI protocol based liquid medium dilution method
Pichia kudriavzevii = experiment: Antifungal activity against Candida krusei ATCC 6258 assessed as fungal growth inhibition measured after 72 hrs by CLSI protocol based liquid medium dilution method
Candida albicans [1] = experiment: Antifungal activity against Candida albicans ATCC 10231 assessed as fungal growth inhibition measured after 72 hrs by CLSI protocol based liquid medium dilution method
Candida tropicalis = experiment: Antifungal activity against Candida tropicalis ATCC 1369 assessed as fungal growth inhibition measured after 72 hrs by CLSI protocol based liquid medium dilution method
Nakaseomyces glabratus = experiment: Antifungal activity against Candida glabrata ATCC 0001 assessed as fungal growth inhibition measured after 72 hrs by CLSI protocol based liquid medium dilution method
Candida albicans [2] = experiment: Antifungal activity against Candida albicans assessed as fungal growth inhibition measured after 72 hrs by CLSI protocol based liquid medium dilution method

Row | Compound | MIC50 (Aspergillus fumigatus) [µg/mL] | MIC50 (Pichia kudriavzevii) [µg/mL] | MIC50 (Candida albicans [1]) [µg/mL] | MIC50 (Candida tropicalis) [µg/mL] | MIC50 (Nakaseomyces glabratus) [µg/mL] | MIC50 (Candida albicans [2]) [µg/mL]
1 | CC(C)[C@H](NC(=O)c1ccc2c(c1)OCCO2)C(=O)N[C@@H](Cn1ccnc1)c1ccccc1 | 4 (≈ 8.92 µM) | 0.5 (≈ 1.11 µM) | 0.25 (≈ 0.557 µM) | 0.125 (≈ 0.279 µM) | 0.25 (≈ 0.557 µM) | –
2 | CCC(C)[C@H](NC(=O)c1ccc2c(c1)OCCO2)C(=O)Nc1cccnc1 (stereo partly drawn) | 4 (≈ 10.8 µM) | 1 (≈ 2.71 µM) | 0.5 (≈ 1.35 µM) | 2 (≈ 5.41 µM) | 1 (≈ 2.71 µM) | –
3 | O=C(N[C@@H](Cn1ccnc1)c1ccccc1)c1ccc2c(c1)OCCO2 | > 8 | 0.5 (≈ 1.43 µM) | 0.25 (≈ 0.716 µM) | 0.25 (≈ 0.716 µM) | 0.25 (≈ 0.716 µM) | –
4 | O=C(N[C@H](Cc1ccccc1)Cn1cncn1)c1cccc2c1OCCO2 | 4 (≈ 11 µM) | 0.5 (≈ 1.37 µM) | 0.25 (≈ 0.686 µM) | 0.25 (≈ 0.686 µM) | 0.5 (≈ 1.37 µM) | –
5 | CC(C)[C@H](NC(=O)c1cccc2c1OCCO2)C(=O)Nc1cccnc1 | > 8 | 0.5 (≈ 1.41 µM) | 0.5 (≈ 1.41 µM) | 1 (≈ 2.81 µM) | 1 (≈ 2.81 µM) | –
6 | O=C(NCCc1ccccc1)c1cccc2c1OCCO2 | – | – | – | – | – | 8 (≈ 28.2 µM)
7 | CCC(C)[C@H](NC(=O)c1cccc2c1OCCO2)C(=O)N[C@@H](Cn1cncn1)c1ccccc1 (stereo partly drawn) | 4 (≈ 8.63 µM) | 0.25 (≈ 0.539 µM) | 0.125 (≈ 0.27 µM) | 0.25 (≈ 0.539 µM) | 0.5 (≈ 1.08 µM) | –
8 | O=C(N[C@H](Cc1ccccc1)Cn1ccnc1)c1cccc2c1OCCO2 | > 8 | 0.5 (≈ 1.38 µM) | 0.5 (≈ 1.38 µM) | 0.25 (≈ 0.688 µM) | 0.25 (≈ 0.688 µM) | 0.5 (≈ 1.38 µM)
9 | CCC(C)[C@H](NC(=O)c1cccc2c1OCCO2)C(=O)N[C@@H](Cn1ccnc1)c1ccccc1 (stereo partly drawn) | > 8 | 0.5 (≈ 1.08 µM) | 0.5 (≈ 1.08 µM) | 0.25 (≈ 0.54 µM) | 0.25 (≈ 0.54 µM) | –
10 | O=C(N[C@@H](Cn1cncn1)c1ccccc1)c1ccc2c(c1)OCCO2 | > 8 | 0.5 (≈ 1.43 µM) | 0.125 (≈ 0.357 µM) | 0.5 (≈ 1.43 µM) | 0.125 (≈ 0.357 µM) | –
11 | CCC(C)[C@H](NC(=O)c1ccc2c(c1)OCCO2)C(=O)N[C@@H](Cn1cncn1)c1ccccc1 (stereo partly drawn) | 4 (≈ 8.63 µM) | 0.25 (≈ 0.539 µM) | 0.25 (≈ 0.539 µM) | 0.25 (≈ 0.539 µM) | 0.5 (≈ 1.08 µM) | –
12 | CCC(C)[C@H](NC(=O)c1cccc2c1OCCO2)C(=O)Nc1cccnc1 (stereo partly drawn) | > 8 | 2 (≈ 5.41 µM) | 0.5 (≈ 1.35 µM) | 0.5 (≈ 1.35 µM) | 1 (≈ 2.71 µM) | –
13 | CCOC(=O)[C@@H](NC(=O)c1cccc2c1OCCO2)C(C)C | – | – | – | – | – | 16 (≈ 52.1 µM)
14 | CC(C)[C@H](NC(=O)c1ccc2c(c1)OCCO2)C(=O)Nc1cccnc1 | > 8 | 0.5 (≈ 1.41 µM) | 0.25 (≈ 0.703 µM) | 1 (≈ 2.81 µM) | 1 (≈ 2.81 µM) | –
15 | O=C(N[C@@H](Cn1ccnc1)c1ccccc1)c1cccc2c1OCCO2 | > 8 | 1 (≈ 2.86 µM) | 0.5 (≈ 1.43 µM) | 0.5 (≈ 1.43 µM) | 0.5 (≈ 1.43 µM) | –
16 | O=C(N[C@@H](Cn1cncn1)c1ccccc1)c1cccc2c1OCCO2 | > 8 | 0.25 (≈ 0.714 µM) | 0.125 (≈ 0.357 µM) | 0.5 (≈ 1.43 µM) | 1 (≈ 2.85 µM) | –
17 | CC(C)[C@H](NC(=O)c1ccc2c(c1)OCCO2)C(=O)N[C@@H](Cn1cncn1)c1ccccc1 | > 8 | 0.25 (≈ 0.556 µM) | 0.25 (≈ 0.556 µM) | 0.25 (≈ 0.556 µM) | 0.5 (≈ 1.11 µM) | –
18 | CCC(C)[C@H](NC(=O)c1cccc2c1OCCO2)C(=O)Nc1ccncc1 (stereo partly drawn) | 4 (≈ 10.8 µM) | 0.5 (≈ 1.35 µM) | 1 (≈ 2.71 µM) | 0.5 (≈ 1.35 µM) | 2 (≈ 5.41 µM) | –
19 | CCC(C)[C@H](NC(=O)c1ccc2c(c1)OCCO2)C(=O)Nc1ccncc1 (stereo partly drawn) | > 8 | 1 (≈ 2.71 µM) | 0.5 (≈ 1.35 µM) | 0.5 (≈ 1.35 µM) | 2 (≈ 5.41 µM) | –
20 | CC(C)[C@H](NC(=O)c1ccc2c(c1)OCCO2)C(=O)Nc1ccncc1 | > 8 | 0.25 (≈ 0.703 µM) | 0.5 (≈ 1.41 µM) | 0.5 (≈ 1.41 µM) | 0.5 (≈ 1.41 µM) | –
21 | O=C(N[C@H](Cc1ccccc1)Cn1ccnc1)c1ccc2c(c1)OCCO2 | 4 (≈ 11 µM) | 0.5 (≈ 1.38 µM) | 0.5 (≈ 1.38 µM) | 0.5 (≈ 1.38 µM) | 0.25 (≈ 0.688 µM) | –
